From article PMC5793121 (Toxins, 2018)
No end group written: not given here.

Target: T1, rat neuronal heteromeric α4β2 nAChR (Rattus norvegicus, UniProt P09483+P12390)
T1 construct: expressed in transfected cells; host or cells: Xenopus laevis oocytes injected with pcDNA3.1 plasmids, α4:β2 1:1
Type: cell-based

T1 sequence (P09483 31-630): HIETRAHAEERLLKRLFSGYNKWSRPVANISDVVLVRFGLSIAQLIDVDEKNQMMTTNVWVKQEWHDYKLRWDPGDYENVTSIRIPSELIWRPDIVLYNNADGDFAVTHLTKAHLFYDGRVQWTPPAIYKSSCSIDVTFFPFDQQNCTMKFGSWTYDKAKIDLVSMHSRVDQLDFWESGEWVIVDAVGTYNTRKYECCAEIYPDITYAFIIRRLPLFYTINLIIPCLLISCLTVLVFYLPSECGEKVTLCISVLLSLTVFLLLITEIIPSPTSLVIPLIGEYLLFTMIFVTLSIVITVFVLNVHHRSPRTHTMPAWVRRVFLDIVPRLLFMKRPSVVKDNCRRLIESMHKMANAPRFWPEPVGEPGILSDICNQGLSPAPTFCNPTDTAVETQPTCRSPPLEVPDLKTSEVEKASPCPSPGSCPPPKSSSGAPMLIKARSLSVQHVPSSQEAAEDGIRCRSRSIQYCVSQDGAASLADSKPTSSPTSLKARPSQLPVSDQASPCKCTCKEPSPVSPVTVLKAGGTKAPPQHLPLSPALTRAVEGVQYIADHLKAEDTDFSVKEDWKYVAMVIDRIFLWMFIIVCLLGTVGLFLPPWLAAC
T1 sequence (P12390 25-500): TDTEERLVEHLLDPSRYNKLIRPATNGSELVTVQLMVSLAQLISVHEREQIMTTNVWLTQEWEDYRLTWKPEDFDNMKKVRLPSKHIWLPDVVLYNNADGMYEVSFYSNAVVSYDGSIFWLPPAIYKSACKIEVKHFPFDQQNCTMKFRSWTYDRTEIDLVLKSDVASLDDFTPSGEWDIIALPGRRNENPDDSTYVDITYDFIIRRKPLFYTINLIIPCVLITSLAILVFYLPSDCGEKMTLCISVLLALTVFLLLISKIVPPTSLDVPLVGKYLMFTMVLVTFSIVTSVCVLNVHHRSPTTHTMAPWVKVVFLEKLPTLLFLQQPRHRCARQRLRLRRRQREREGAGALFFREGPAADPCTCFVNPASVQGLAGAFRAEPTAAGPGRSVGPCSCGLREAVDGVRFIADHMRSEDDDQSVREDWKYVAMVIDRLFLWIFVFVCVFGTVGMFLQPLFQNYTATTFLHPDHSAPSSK

DNWWPKPPHQGPRPPRPRPKP-NH2 [Az, azemiopsin]
influence on ion currents induced by 20 μM nicotine in α4β2 nAChR: no influence | effect on heteromeric rat α4β2 nAChR (concentrations up to 100 μM): no effect
